Reference: publication PMC11866186, “Novel Benzimidazole–Oxadiazole Derivatives as Anticancer Agents with VEGFR2 Inhibitory Activity: Design, Synthesis, In Vitro Anticancer Evaluation, and In Silico Studies” (ACS Omega, 2025)
Where two headings read alike, the source gives them in different places.

Tests used:
hTERT-HPNE cell line = experiment: MTT assay, normal pancreas hTERT-HPNE cells; type: cell-based; conditions: normal human pancreas cells, 24 h, read-out: IC50 against hTERT-HPNE
Experimental: (§1) By comparing the compounds’ cytotoxic effects against tumor cell lines and normal cell lines, the drug safety parameter for the anticancer activity of the compounds was evaluated, thereby confirming their cytoprotective qualities. In this study, normal human lung (CCD-19Lu) and normal human pancreas (hTERT-HPNE) cell lines were used as controls. The selectivity index (SI) calculated for the compounds tested scales the IC50 values of the compounds against various tumor cell lines with the IC50 values against normal cell lines (Table 2). […] The differential selectivity indices underscore the importance of targeted therapeutic strategies and the potential for these compounds to provide selective anticancer effects with reduced toxicity to normal cells.
(§2) Many analyses are performed to determine cell proliferation. MTT analysis is one of the viability determination tests. According to the working mechanism of the method, the dye containing the tetrazolium ring reacts with the dehydrogenase enzymes in the cells, only to be reduced and broken down by the metabolic cells, turning into water-insoluble formazan crystals. Color changes associated with mitochondrial activity and resulting from the addition of a solvent as a result of the reaction are measured in the microplate reader as optical density data values.[30] Cells were planted in flat-bottomed, 96-well, sterile, lidded, disposable microplates with 1 × 10^4 cells per well in 200 μL of appropriate medium and were allowed to adhere to the plate bottom by incubating for 24 h. At the end of 24 h, 100 μL of medium was withdrawn, and test substances at different concentrations, prepared in 100 μL, were added. Following the substance application, after a 24 h incubation period, 20 μL of stock MTT solution (MTT solution dissolved in 5 mg/mL PBS and filtered before application) was added to each well and protected from light, and the incubation continued for 3 h. Then, the media of the cells were completely withdrawn, and 100 μL of DMSO was added to dissolve the formazan crystals. After shaking in the dark for 15 min, the optical densities (absorbance) of the color changes at 540–570 and 650 nm reference wavelengths were read in the microplate reader. The data were calculated and created in Microsoft Office Excel. For this purpose, first, the blind well value and the control groups of colored substances were removed from the optical readings. The averages of optical densities and % viability values were made from Excel formula calculations, and the results were discussed. The viability of the control group was assumed to be 100%, and all other viability values were calculated based on this (series were run in n = 5 replicates).

PANC-1 cell line = experiment: MTT assay, PANC-1 cells; type: cell-based, human; conditions: for IC50: MTT, 24 h, read-out: IC50 against PANC-1
Experimental: Cisplatin was used as a reference drug. […] There are hydroxyl and methoxy substituents on the phenyl ring attached to the benzimidazole. It has also been derivatized using different groups on the phenyl ring close to oxadiazole.
as §2

VEGFA = VEGFA immunofluorescent staining in MCF-7 cells; type: cell-based, human; conditions: 24 h treatment, anti-VEGFA antibody, semiquantitative scoring
Text: An endogenous angiogenic growth factor called VEGFA primarily promotes the migration and proliferation of vascular endothelial cells.[2] Fluorescent staining degrees of the MCF-7 cancer cell line, marked with an anti-VEGFA antibody and immunofluorescence technique, were compared under light microscopy (Figure 4). […] Five different areas were selected for each group. All cell nuclei seen in the selected areas are compared with those stained VEGFA positive.
For VEGFA immunofluorescent staining, cells were grown on sterile coverslips in 6-well culture dishes. The cells were purified from the medium and washed with phosphate-buffered saline (PBS) (Sigma-Aldrich, Germany). The washed cells were fixed in ph 7.4% paraformaldehyde (Merk, Germany) for 20 min at room temperature. After fixation, the cells were washed two times with PBS for 5 min. For permeability, the cells were incubated in 0.1% Triton X-100 (Sigma-Aldrich, Germany) solution for 10 min. PBS was then washed for 5 min. After washing, Ultra V Block (Thermo Scientific, PBQ180830, USA) was dropped and waited at room temperature for 30 min to prevent nonspecific binding. […] Fluorescent microscopy (Olympus BX51, Japan) was employed by using suitable filters for fluorescence examination and then by making a registration.

A549 cell line = experiment: MTT assay, A549 cells; type: cell-based, human; conditions: for IC50: Homo sapiens, A549, MTT, 24 h, read-out: IC50 against A549
Experimental: (§3) The synthesized compounds 4a–4s were screened for their in vitro anticancer activity via the standard MTT assay using three human tumor cell lines, namely, the human lung adenocarcinoma cell line (A549), the human breast cancer cell line (MCF-7), and the human pancreas cell line (PANC-1). Cisplatin was used as a reference drug. […] When the structures of the compounds are evaluated, it is seen that the compounds are derived from two different sources. There are hydroxyl and methoxy substituents on the phenyl ring attached to the benzimidazole. It has also been derivatized using different groups on the phenyl ring close to oxadiazole. When the activities in the PANC-1 cell line are evaluated, it is seen that the activity of compounds bearing the 2,4-dichloro substituent is especially high.
as §2

MCF-7 cell line = experiment: MTT assay, MCF-7 cells; type: cell-based, human; conditions: Homo sapiens, MCF7, 24 h, read-out: IC50 against MCF-7
Experimental: as §3, §2

CCD-19Lu cell line = experiment: MTT assay, normal lung CCD-19Lu cells; type: cell-based; conditions: CCD 19Lu, normal human lung cells, 24 h, read-out: IC50 against CCD-19Lu
Experimental: as §1, §2

VEGFR2 = target: T1, VEGFR2 (Homo sapiens, UniProt P35968); experiment: VEGFR2 Kinase Assay Kit inhibition; type: biochemical; conditions: read-out: IC50 against VEGFR2
T1 construct: purchased
Experimental: The VEGFR2 Kinase Assay Kit was used for VEGFR2 inhibition. The experiment was performed in vitro according to the kit procedure.[31]

T1 sequence (P35968 20-1356): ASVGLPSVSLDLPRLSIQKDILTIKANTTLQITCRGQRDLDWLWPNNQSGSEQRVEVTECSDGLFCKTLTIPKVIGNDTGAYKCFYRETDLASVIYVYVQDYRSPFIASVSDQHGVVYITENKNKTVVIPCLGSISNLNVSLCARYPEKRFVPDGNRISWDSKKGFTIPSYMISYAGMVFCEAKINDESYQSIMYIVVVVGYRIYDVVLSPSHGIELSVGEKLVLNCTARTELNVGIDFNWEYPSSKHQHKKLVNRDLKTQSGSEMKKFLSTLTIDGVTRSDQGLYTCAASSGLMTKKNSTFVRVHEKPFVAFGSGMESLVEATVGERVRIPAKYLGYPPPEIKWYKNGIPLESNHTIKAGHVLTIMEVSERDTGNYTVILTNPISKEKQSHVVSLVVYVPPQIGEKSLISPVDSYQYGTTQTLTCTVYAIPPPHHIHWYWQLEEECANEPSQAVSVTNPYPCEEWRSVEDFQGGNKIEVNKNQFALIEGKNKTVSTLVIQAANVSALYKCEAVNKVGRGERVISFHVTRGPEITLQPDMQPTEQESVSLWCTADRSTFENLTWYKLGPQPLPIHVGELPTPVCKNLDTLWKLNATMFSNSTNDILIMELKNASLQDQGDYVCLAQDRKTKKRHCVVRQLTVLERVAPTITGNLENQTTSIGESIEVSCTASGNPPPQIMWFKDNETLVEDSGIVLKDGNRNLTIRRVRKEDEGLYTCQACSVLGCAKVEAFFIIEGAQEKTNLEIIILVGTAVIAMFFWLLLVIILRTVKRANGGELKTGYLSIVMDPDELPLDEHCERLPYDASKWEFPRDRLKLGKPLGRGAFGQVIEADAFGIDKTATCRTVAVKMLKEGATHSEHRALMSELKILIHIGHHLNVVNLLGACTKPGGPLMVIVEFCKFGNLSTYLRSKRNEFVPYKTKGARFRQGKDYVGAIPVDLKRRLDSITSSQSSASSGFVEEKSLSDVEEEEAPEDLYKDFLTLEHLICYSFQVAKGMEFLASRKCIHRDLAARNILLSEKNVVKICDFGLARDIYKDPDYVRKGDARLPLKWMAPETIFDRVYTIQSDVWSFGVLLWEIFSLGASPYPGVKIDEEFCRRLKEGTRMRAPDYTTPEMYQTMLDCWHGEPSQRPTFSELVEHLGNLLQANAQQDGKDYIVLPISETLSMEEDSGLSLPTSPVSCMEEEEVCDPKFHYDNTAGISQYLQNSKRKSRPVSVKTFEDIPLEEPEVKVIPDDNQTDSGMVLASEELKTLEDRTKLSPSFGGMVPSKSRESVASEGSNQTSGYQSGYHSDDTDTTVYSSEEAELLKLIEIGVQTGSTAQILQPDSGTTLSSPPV

Compound	IC50 (hTERT-HPNE cell line) [nM]	IC50 (PANC-1 cell line; Homo sapiens, PANC-1, 24 h) [nM]	IC50 (PANC-1 cell line) [nM]	Selectivity index (PANC-1) (PANC-1 cell line; SI = cytotoxicity against hTERT-HPNE cells/cytotoxicity against PANC-1 cell line)	VEGFA immunolocalization compared with control (VEGFA)	IC50 (A549 cell line) [nM]	Selectivity index (A549) (A549 cell line; SI = cytotoxicity against CCD-19Lu cells/cytotoxicity against A549 cell line)	IC50 (MCF-7 cell line) [nM]	IC50 (CCD-19Lu cell line) [nM]	IC50 (VEGFR2) [nM]
COc1ccc(-c2nc3ccc(-c4nnc(SCC(=O)c5ccc(O)c(O)c5)o4)cc3[nH]2)cc1 [4s, 2-((5-(2-(4-Methoxyphenyl)-1H-benzimidazol-6-yl)-1,3,4-oxadiazol-2-yl)thio)-1-(3,4-dihydroxyphenyl)-ethanone]	38300	6700	6600	5.80	less VEGFA immunolocalization	1600	0.81	1200	1300	502 ± 28
COc1ccc(-c2nc3ccc(-c4nnc(SCC(=O)c5ccc(Cl)cc5Cl)o4)cc3[nH]2)cc1 [4r, 2-((5-(2-(4-Methoxyphenyl)-1H-benzimidazol-6-yl)-1,3,4-oxadiazol-2-yl)thio)-1-(2,4-dichlorophenyl)-ethanone]	10900	–	–	–	less VEGFA immunolocalization	300	–	500	800	–
